Measurements: paper PMC6967409 (Frontiers in Chemistry, 2020)
Where “and” joins values, the source holds several entries; their conditions need not be identical. Identical values can stand only once. Like-named read-outs stand apart in the source and are kept apart here.

Tests used:
P. falciparum NF54 [1] = test: Metabolic (parasite LDH) assay, asexual ring stage parasites, 48 h; type: cell-based; settings: Plasmodium falciparum, pLDH, CQ-sensitive NF54
Procedure: (§1) P. falciparum parasites (NF54, K1, and W2) were cultured in vitro in human erythrocytes (A^+ or O^+) under 90% N2, 5% CO2, and 5% O2 atmospheric conditions with supplemented RPMI 1640 media (Sigma Aldrich) containing Albumax II, as previously described (Verlinden et al., [2011]). This study was carried out according the guidelines set out by the Faculty of Health Sciences Ethical Committee, Ethical Clearance no. EC-120821/077. The protocol was approved by the Faculty of Health sciences ethical committee at the University of Pretoria. All subjects gave written informed consent in accordance with the Declaration of Helsinki. Parasite proliferation was monitored microscopically using Giemsa stained smears. Synchronized ring stage parasites (>95%) were obtained using a 5% D-sorbitol (Sigma Aldrich) treatment. […] Gametocyte cultures were kept stationary under 90% N2, 5% CO2, and 5% O2 atmospheric conditions at 37°C and treated with 50 mM N-acetyl-glucosamine (NAG) to eliminate residual invasion of asexual parasites.
(§2) Working solutions of the derivatives were prepared from a 10 mM stock solution in 100% DMSO in supplemented RPMI 1640 media containing Albumax II with a final DMSO concentration of <0.1%, previously determined as being non-toxic to intraerythrocytic asexual parasites and gametocytes. Dose responses were assayed using a two-fold serial drug dilution on in vitro >95% ring stage intraerythrocytic P. falciparum parasites at 37°C under 90% N2, 5% CO2, and 5% O2 atmospheric conditions, detecting both parasite lactate dehydrogenase (pLDH) activity as a metabolic marker following a 48 h drug exposure (1.5–2% parasitemia and 2% hematocrit; Makler et al., [1993]) and SYBR Green I fluorescence as proliferative marker following a 96 h drug exposure (1% parasitemia and 1% hematocrit). […] Data analysis was performed using GraphPad Prism 7.

P. falciparum Dd2 [2] = test: as above; type: cell-based; settings: Plasmodium falciparum, pLDH, Dd2 CQ, pyrimethamine resistant
Procedure: as §2

P. falciparum K1 [3] = test: Proliferative (SYBR Green I) assay, asexual parasites, 96 h; type: cell-based; settings: Plasmodium falciparum, ±SEM
Procedure: as §1, §2

P. falciparum NF54 [4] = test: as above; type: cell-based; settings: Plasmodium falciparum, ±SEM
Procedure: as §1, §2

P. falciparum W2 [5] = test: as above; type: cell-based; settings: Plasmodium falciparum, ±SEM
Procedure: as §1, §2

Cytotoxicity, MTT assay = type: cell-based; settings: Chinese hamster, CHO cells
Procedure: (§3) Cytotoxicity (EC50) was determined against Chinese hamster ovarian (CHO) using a 3-(4,5-dimethylthiazol-2-yl)-2,5-diphenyltetrazolium bromide (MTT) assay and hepatocellular carcinoma cells (HepG2) using the Cytoselect LDH cytotoxicity assay kit (Cell Biolabs).

[6] = Cytotoxicity, Cytoselect LDH cytotoxicity assay kit; type: cell-based; settings: human, HepG2 cells
Procedure: as §3

[7] = system: P. falciparum NF54 early stage gametocytes (>90% stage I–III); test: Gametocytocidal luciferase reporter assay, early stage, 48 h; type: cell-based; settings: Plasmodium falciparum, NF54, 48 h, read-out: Early Stage (EG, Luc 48 h) IC50
Procedure: as §1
(§4) Gametocytocidal activity was determined using the luciferase reporter line (Reader et al., [2015]) to derive dose responses with two-fold serial drug dilutions for 48 h against early stage gametocytes (day 5 post-induction population, >90% stage I–III) and 10-fold serial drug dilutions for 72 h against late stage gametocytes (day 10 post-induction population, >90% late stage IV–V) (2% gametocytemia, 2% hematocrit), at 37°C under 90% N2, 5% CO2, and 5% O2 atmospheric conditions.

[8] = system: P. falciparum NF54 late stage gametocytes (>90% stage IV and V); test: Gametocytocidal luciferase reporter assay, late stage, 72 h; type: cell-based, Plasmodium falciparum; settings: Plasmodium falciparum, NF54, 72 h, read-out: Late Stage (LG, Luc 72 h) IC50, >90% stage IV and V gametocytes, ±SEM
Procedure: as §1, §4

[9] = system: P. berghei ANKA GFP-Luc-SMcon sporozoites; test: P. berghei-luciferase liver stage bioluminescence assay (causal prophylactic mode) in HepG2-CD81 cells; type: cell-based, Plasmodium berghei
Procedure: (§5) Briefly, HepG2-CD81 cells were seeded into 1,536 well plates containing 50 nL of test and control compounds diluted into DMSO. […] Next, 2 μL of luciferin reagent (Promega BrightGlo) was added to each well and luciferase activity was detected using a Perkin Elmer Envision plate reader. […] In parallel, plates were processed without sporozoites for HepG2 toxicity measurements.
(§6) In continuation of the transmission blocking theme, it is important to establish activities against liver stage parasites. […] This assay uses ultra-high-throughput screening methods optimized for a 1536-well format and a HepG2 human hepatoma cell line. […] To establish selectivity of the compounds for the parasite in the liver stage of infection, cytotoxicity was determined by measuring bioluminescence from the reaction between free ATP of compound-treated, uninfected hepatocytes and a luciferase reporter system.

[10] = HepG2 cytotoxicity bioluminescence assay (CellTiterGlo, ATP); type: cell-based, human; settings: human, uninfected HepG2-CD81 cells
Procedure: as §5, §6

HepG2 cells = test: as above; type: cell-based, human; settings: two biological replicates listed in one cell; listed as 27 (WHN-15)
Procedure: as §5, §6

P. falciparum W2 [11] = test: T0 [3H]-hypoxanthine drug susceptibility assay; type: cell-based; settings: Plasmodium falciparum; for IC50: W2, read-out: W2 IC50; for IC90: W2, read-out: W2 IC90
[12] = system: P. falciparum ARC08-22 (4G); test: T0 [3H]-hypoxanthine drug susceptibility assay, artemisinin-resistant clone (C580Y); type: cell-based, Plasmodium falciparum; settings: preliminary, W2 as comparative sensitive strain
P. falciparum NF54 [13] = system: P. falciparum NF54; design: method as in Coertzen et al. (2018); settings: pLDH, 48 h; ref Coertzen et al. (2018); read-out: Metabolic IC50 NF54; cited from earlier work
P. falciparum Dd2 [14] = system: P. falciparum Dd2; design: method as in Coertzen et al. (2018); settings: pLDH, 48 h; ref Coertzen et al. (2018); read-out: Metabolic IC50 Dd2; cited from earlier work
P. falciparum NF54 [15] = system: P. falciparum NF54; design: method as in Coertzen et al. (2018); settings: SYBR Green I; ref Coertzen et al. (2018); read-out: Proliferative IC50 NF54; cited from earlier work
P. falciparum K1 [16] = system: P. falciparum K1; design: method as in Coertzen et al. (2018); settings: SYBR Green I; ref Coertzen et al. (2018); read-out: Proliferative IC50 K1; cited from earlier work
P. falciparum W2 [17] = system: P. falciparum W2; design: method as in Coertzen et al. (2018); settings: SYBR Green I; ref Coertzen et al. (2018); read-out: Proliferative IC50 W2; cited from earlier work
[18] = system: P. falciparum NF54 early stage gametocytes (>90% stage I–III); design: method as in Coertzen et al. (2018); settings: read-out: Early Stage (EG, Luc 48 h) IC50; >90% stage I–III gametocytes; ref Coertzen et al. (2018); cited from earlier work
[19] = system: P. falciparum NF54 late stage gametocytes (>90% stage IV and V); design: method as in Coertzen et al. (2018); settings: read-out: Late Stage (LG, Luc 72 h) IC50; >90% stage IV and V gametocytes; ref Coertzen et al. (2018); cited from earlier work
[20] = system: Chinese hamster ovarian (CHO) cells; settings: cited from earlier work

Compound `C[C@H]1[C@H](N2CCN(C(=O)c3ccc(C(F)(F)F)cc3)CC2)O[C@@H]2O[C@@]3(C)CC[C@H]4[C@H](C)CC[C@@H]1[C@@]24OO3` [Compound 27] has an IC50 (P. falciparum NF54 [1]) of 0.49 ± 0.04 nM, an IC50 (P. falciparum Dd2 [2]) of 13.2 ± 9.3 nM and an IC50 (P. falciparum K1 [3]) of 3.5 ± 2.4 nM. The IC50 (P. falciparum NF54 [4]) was 3.4 ± 0.4 nM, the IC50 (P. falciparum W2 [5]) was 3 ± 0.4 nM and the EC50 (Cytotoxicity, MTT assay) was 150000 nM. For the same compound, the EC50 [6] was 136 nM, the IC50 [7] was 43.7 ± 5.1 nM and the IC50 [8] was 2.8 ± 1.8 nM. The Emax ([9]; Plasmodium berghei, 48 h, two biological replicates listed in one cell, read-out: P.berghei-Luciferase Liver Stage Bioluminescence Assay: Maximum measured (%)) was 105%, the IC50 ([9]; Plasmodium berghei, HepG2, 48 h, liver stage, HepG2 host cells, luciferase after 48 h, ±SD, read-out: P. berghei sporozoites IC50) was 168 ± 55.2 nM and the IC50 ([9]; Plasmodium berghei, two biological replicates listed in one cell, read-out: P.berghei-Luciferase Liver Stage Bioluminescence Assay: IC50) was 129 nM. The inhibition at 10 µM ([9]; Plasmodium berghei, Conc. 10 μM, read-out: P. berghei sporozoites Maximum inhibition %) was 108 ± 4.24%, the IC50 ([9]; two biological replicates listed in one cell, listed as 27 (WHN-15), read-out: P.berghei-Luciferase Liver Stage Bioluminescence Assay: IC50) was 207 nM and the IC50 at 72 h ([10]; two biological replicates listed in one cell) was 8910 nM. For the same compound, the EC50 at 72 h ([10]; uninfected HepG2, ATP bioluminescence) was 7020 nM, the “HepG2 Cytotoxicity Bioluminescence Assay: Maximum measured (%)” value (HepG2 cells) was 78.3% and 80.2% and the IC50 (HepG2 cells) was 5120 nM. The IC50 (P. falciparum W2 [11]) was 0.21 ± 0.04 nM, the IC90 (P. falciparum W2 [11]) was 0.41 ± 0.08 nM and the “susceptibility of ARC08-22 (4G) clone (in words)” value [12] was “no indication of reduced susceptibility”.
In the case of `CC1CCC2C(C)C(N3CCNCC3)OC3OC4(C)CCC1C32OO4` (stereo not drawn) [DHA-piperazine 9], the IC50 (P. falciparum NF54 [13]) is listed as 3.2 ± 1.4 nM, the IC50 (P. falciparum Dd2 [14]) is listed as 1.7 ± 0.2 nM and the IC50 (P. falciparum NF54 [15]) is listed as 3.1 ± 0.4 nM. For the same compound, the IC50 (P. falciparum K1 [16]) was 1.9 ± 0.5 nM, the IC50 (P. falciparum W2 [17]) was 1.4 ± 0.7 nM and the IC50 [18] was 54.9 ± 5.11 nM. For the same compound, the IC50 [19] was 25.7 ± 17.5 nM.
In the case of `CN(C)c1ccc2nc3ccc(=[N+](C)C)cc-3sc2c1` [MB, methylene blue], the IC50 (P. falciparum NF54 [13]) is listed as 0.3 ± 0.8 nM, the IC50 (P. falciparum Dd2 [14]) is listed as 12.6 ± 4 nM and the IC50 (P. falciparum NF54 [15]) is listed as 5 ± 0.8 nM. The IC50 (P. falciparum K1 [16]) was 6.45 ± 0.3 nM, the IC50 (P. falciparum W2 [17]) was 5.13 ± 0.31 nM and the IC50 [18] was 95 ± 11.3 nM. The IC50 [19] was 143 ± 16.7 nM and the EC50 [20] was 52600 ± 4500 nM.
In the case of `CC1CCC2C(C)C(N3CCN(C(=O)Nc4ccccc4)CC3)OC3OC4(C)CCC1C32OO4` (stereo not drawn) [Phenylurea 10], the IC50 (P. falciparum W2 [11]) is listed as 0.12 ± 0.03 nM, the IC90 (P. falciparum W2 [11]) is listed as 0.2 ± 0.03 nM and the IC50 (P. falciparum NF54 [13]) is listed as 1.3 ± 0.8 nM. For the same compound, the IC50 (P. falciparum Dd2 [14]) was 7.5 ± 0.4 nM, the IC50 (P. falciparum NF54 [15]) was 4.7 ± 1.5 nM and the IC50 (P. falciparum K1 [16]) was 2.9 ± 0.6 nM. For the same compound, the IC50 (P. falciparum W2 [17]) was 1.7 ± 0.5 nM, the IC50 [18] was 83 ± 2 nM and the EC50 ([20]; read-out: Cytotoxicity EC50 CHO, MTT assay, ref Coertzen et al. (2018)) was 2400 ± 1000 nM.
